US8415299B2, “Methods for improved avian performance” (priority 2004, dated 2013)
Where two headings read alike, the source gives them in different places.

Assays:
turkey hens = settings: cited from earlier work
[1] = tested on: 60-week old Hy-Line W-36 White Leghorn hens; settings: for Feed Intake: day 22 to day 28
Experimental: Experiment 1. […] The photoperiod was 17 hours of light per day (0330 hours to 2030 hours).

[2] = tested on: 102-week old Hy-Line W-36 White Leghorn hens
Experimental: Experiment 2. […] The photoperiod was 17 hours of light per day (0330 hours to 2030 hours).
The objective was to use T4 to humanely induce molting in hens that are continuously provided with ad libitum access to palatable feed meeting or exceeding all National Research Council (1994) standards. Developing a fully efficacious yet affordable molting protocol was predicated on determining the minimum effective level for T4 supplementation. Factors that potentially may affect the required level of T4 supplementation include: (1) uncertainty regarding the efficiency of T4 absorption by the gastrointestinal tract, (2) the possibility that continuous dietary ingestion of T4 could trigger substantially different biological responses when compared single daily injections, and (3) the likelihood that daily T4 intake would diminish in parallel with molt-related reductions in feed intake associated with cessation in egg production. A spontaneous and voluntary loss of appetite (anorexia) commonly accompanies seasonal molting and broodiness in a variety of avian species (Berry, 2003; Webster, 2003). Accordingly, the responses of hens to diets containing 10, 20, and 40 mg T4/kg, to bracket the anticipated range of T4 needed to cause an effective molt, were determined.

[3] = 40 mg T4/kg test diet for 10 days

N[C@@H](Cc1cc(I)c(Oc2cc(I)c(O)c(I)c2)c(I)c1)C(=O)O [L-thyroxine, 3,5,3′,5′-tetraiodothyronine]
Time out of egg production after treatment (turkey hens; 2 mg/hen/day i.m. (Lien and Siopes 1993)): 4 weeks
Egg laying (turkey hens; 3 mcg/mL water (600 to 900 mcg/bird/day), 20 to 25 week old turkey females (Bilezikian et al. 1980)): rarely lay eggs
Effect on egg production ([1]; 250 μg T4 per kg body weight i.m. for 12 consecutive days): did not reduce egg production significantly
Day after start of T4 injection on which molting began in all cages ([1]; 500 μg T4 Group): 11 days
Time after start of injecting at which egg production was significantly reduced ([1]; 500 μg T4 Group): 4 days
Day after start of T4 injection on which molting began in all cages ([1]; 1,000 μg T4 Group): 9 days
Time after start of injecting at which egg production was significantly reduced ([1]; 1,000 μg T4 Group): 4 days
Mortality ([1]; 1,000 μg T4 Group, 2 of 8 hens, died 9th and 10th day after start of injection): 25%
Day after start of injection on which molting commenced in all cages ([1]; 2,000 μg T4 Group): 9 days
Time to rapid and complete cessation of egg production ([1]; 2,000 μg T4 per kg body weight i.m. for 3 consecutive days): ≤ 6 days
Day after start of injection on which molting commenced in all cages ([1]; 4,000 μg T4 Group): 9 days
Mortality ([1]; 4000 μg T4 Group, 1 of 4 hens, died 8th day after start of injection): 25%
Time to rapid and complete cessation of egg production ([1]; 4,000 μg T4 per kg body weight i.m. for 3 consecutive days): ≤ 4 days
End of Injections Body Weight ([1]; 250 mcg/kg BW i.m. 12 d): 1300 g
Feed Intake ([1]; 250 mcg/kg BW i.m. 12 d): 58.7 g/hen/day
Feed Intake ([1]; 500 mcg/kg BW i.m. 8 d): 52.3 g/hen/day
Feed Intake ([1]; 1,000 mcg/kg BW i.m. 8 d): 31.4 g/hen/day
Feed Intake ([1]; 2,000 mcg/kg BW i.m. 3 d): 20.2 g/hen/day
Feed Intake ([1]; 4,000 mcg/kg BW i.m. 3 d): 11.7 g/hen/day
Time to onset of molt after T4 feeding was initiated ([2]; 10 mg T4 kg Group, 10 days on test diets, half of the hens): 11 days
Feed consumption change from days 2-4 (% FCC) ([2]; 10 mg/kg feed 6 d, Day 11-14): −19.7%
Feed consumption (FC) ([2]; 10 mg/kg feed 6 d, Days 2-4 (pre-treatment)): 101.3 g/hen/d
Feed consumption (FC) ([2]; 10 mg/kg feed 6 d, Days 5-7): 60.0 g/hen/d
Feed consumption change from days 2-4 (% FCC) ([2]; 10 mg/kg feed 6 d, Days 5-7): −40.8%
Feed consumption (FC) ([2]; 10 mg/kg feed 6 d, Days 8-10): 35.3 g/hen/d
Feed consumption change from days 2-4 (% FCC) ([2]; 10 mg/kg feed 6 d, Days 8-10): −65.2%
Feed consumption (FC) ([2]; 10 mg/kg feed 10 d, Day 11-14): 47.3 g/hen/d
Feed consumption change from days 2-4 (% FCC) ([2]; 10 mg/kg feed 10 d, Day 11-14): −43.7%
Feed consumption (FC) ([2]; 10 mg/kg feed 10 d, Days 2-4 (pre-treatment)): 84.0 g/hen/d
Feed consumption (FC) ([2]; 10 mg/kg feed 10 d, Days 5-7): 56.0 g/hen/d
Feed consumption change from days 2-4 (% FCC) ([2]; 10 mg/kg feed 10 d, Days 5-7): −33.3%
Feed consumption (FC) ([2]; 10 mg/kg feed 10 d, Days 8-10): 33.7 g/hen/d
Feed consumption change from days 2-4 (% FCC) ([2]; 10 mg/kg feed 10 d, Days 8-10): −59.9%
Feed consumption (FC) ([2]; 20 mg/kg feed 6 d, Day 11-14): 73.7 g/hen/d
Feed consumption change from days 2-4 (% FCC) ([2]; 20 mg/kg feed 6 d, Day 11-14): −28.4%
Feed consumption (FC) ([2]; 20 mg/kg feed 6 d, Days 2-4 (pre-treatment)): 103.0 g/hen/d
Feed consumption (FC) ([2]; 20 mg/kg feed 6 d, Days 5-7): 42.0 g/hen/d
Feed consumption change from days 2-4 (% FCC) ([2]; 20 mg/kg feed 6 d, Days 5-7): −59.2%
Feed consumption (FC) ([2]; 20 mg/kg feed 6 d, Days 8-10): 33.7 g/hen/d
Feed consumption change from days 2-4 (% FCC) ([2]; 20 mg/kg feed 6 d, Days 8-10): −67.3%
Feed consumption (FC) ([2]; 20 mg/kg feed 10 d, Day 11-14): 32.7 g/hen/d
Feed consumption change from days 2-4 (% FCC) ([2]; 20 mg/kg feed 10 d, Day 11-14): −72.9%
Feed consumption (FC) ([2]; 20 mg/kg feed 10 d, Days 2-4 (pre-treatment)): 120.7 g/hen/d
Feed consumption (FC) ([2]; 20 mg/kg feed 10 d, Days 5-7): 54.7 g/hen/d
Feed consumption change from days 2-4 (% FCC) ([2]; 20 mg/kg feed 10 d, Days 5-7): −54.7%
Feed consumption (FC) ([2]; 20 mg/kg feed 10 d, Days 8-10): 30.0 g/hen/d
Feed consumption change from days 2-4 (% FCC) ([2]; 20 mg/kg feed 10 d, Days 8-10): −75.1%
Hen-day egg production ([2]; 20 mg/kg feed 10 d, day 4 (pre-treatment)): 75%
Hen-day egg production ([2]; 20 mg/kg feed 10 d, day 30): 25%
Loss of initial body weight [2, 3]: approximately 21%
Reduction of feed intake [2, 3]: approximately 85%
Feed consumption (FC) ([2]; 40 mg/kg feed 6 d, Day 11-14): 46.7 g/hen/d
Feed consumption change from days 2-4 (% FCC) ([2]; 40 mg/kg feed 6 d, Day 11-14): −52.5%
Feed consumption (FC) ([2]; 40 mg/kg feed 6 d, Days 2-4 (pre-treatment)): 98.3 g/hen/d
Feed consumption (FC) ([2]; 40 mg/kg feed 6 d, Days 5-7): 36.7 g/hen/d
Feed consumption change from days 2-4 (% FCC) ([2]; 40 mg/kg feed 6 d, Days 5-7): −62.7%
Feed consumption (FC) ([2]; 40 mg/kg feed 6 d, Days 8-10): 13.7 g/hen/d
Feed consumption change from days 2-4 (% FCC) ([2]; 40 mg/kg feed 6 d, Days 8-10): −86.1%
Hen-day egg production ([2]; 40 mg/kg feed 6 d, day 20): 25%
